Usually IC50 stands for the concentration needed to halve the response being measured. Read a low IC50 as higher potency.

The target of one series is CaMKK1 (Homo sapiens, UniProt Q8N5S9). Kind of series: CaMKK1/2 biochemical assay, 32P radiometric kinase assay (CaMKK1). The procedure:
(§1) The following is an example of a CaMKK1/2-biochemical assay. Compounds were tested for CaMKK1/2 inhibition using a ^32P radiometric kinase assay as follows: A freshly prepared kinase reaction buffer (20 mM Hepes (pH 7.5), 10 mM MgCl2, 1 mM EGTA, 0.02% Brij35, 0.02 mg/ml BSA, 0.1 mM Na3VO4, 2 mM DTT, 1% DMSO) was treated with Myelin Basic Protein (final concentration=20 μM), CaCl2) (final concentration=1.5 mM), Calmodulin (final concentration=0.96 μM) and either CaMKK2 (final reaction concentration=120 nM) or CaMKK1 (final reaction concentration=150 nM) and gently mixed. Compounds were added as aliquots from 10 mM DMSO stock solutions such that the final compound concentration in the assay was either 10 μM, 0.5 μM or 0.2 μM. This mixture was allowed to incubate for 20 minutes at room temperature. ^32P-ATP (specific activity 10 μCi/μL) was added and the mixture was allowed to incubate for 2 hours at room temperature. The reaction mixture was spotted onto P81 ion exchange paper. The kinase activity was detected by the filter binding method.

For series [1], the target named is T1, CaMKK2 (Homo sapiens, UniProt Q96RR4). Kind of series: CaMKK1/2 biochemical assay, 32P radiometric kinase assay (CaMKK2). As to conditions: for inhibition at 10 µM: 10 μM compound, read-out: CaMKK2 % inhibition @ concentrations shown, 10 μM; for inhibition at 0.2 µM: 0.2 μM compound, read-out: CaMKK2 % inhibition @ concentrations shown, 0.2 μM; for inhibition at 0.5 µM: 0.5 μM compound, read-out: CaMKK2 % inhibition @ concentrations shown, 0.5 μM. The protocol:
as §1

For series [2], the target named is T1, CaMKK2. Described as above.
For series [3] the following is noted: despite achieving high plasma concentrations; cited from earlier work.
The conditions of series [4]: cited from earlier work.
The target of a further series is T2, ArH receptor (Homo sapiens, UniProt P35869).
T2 sequence (P35869 11-848): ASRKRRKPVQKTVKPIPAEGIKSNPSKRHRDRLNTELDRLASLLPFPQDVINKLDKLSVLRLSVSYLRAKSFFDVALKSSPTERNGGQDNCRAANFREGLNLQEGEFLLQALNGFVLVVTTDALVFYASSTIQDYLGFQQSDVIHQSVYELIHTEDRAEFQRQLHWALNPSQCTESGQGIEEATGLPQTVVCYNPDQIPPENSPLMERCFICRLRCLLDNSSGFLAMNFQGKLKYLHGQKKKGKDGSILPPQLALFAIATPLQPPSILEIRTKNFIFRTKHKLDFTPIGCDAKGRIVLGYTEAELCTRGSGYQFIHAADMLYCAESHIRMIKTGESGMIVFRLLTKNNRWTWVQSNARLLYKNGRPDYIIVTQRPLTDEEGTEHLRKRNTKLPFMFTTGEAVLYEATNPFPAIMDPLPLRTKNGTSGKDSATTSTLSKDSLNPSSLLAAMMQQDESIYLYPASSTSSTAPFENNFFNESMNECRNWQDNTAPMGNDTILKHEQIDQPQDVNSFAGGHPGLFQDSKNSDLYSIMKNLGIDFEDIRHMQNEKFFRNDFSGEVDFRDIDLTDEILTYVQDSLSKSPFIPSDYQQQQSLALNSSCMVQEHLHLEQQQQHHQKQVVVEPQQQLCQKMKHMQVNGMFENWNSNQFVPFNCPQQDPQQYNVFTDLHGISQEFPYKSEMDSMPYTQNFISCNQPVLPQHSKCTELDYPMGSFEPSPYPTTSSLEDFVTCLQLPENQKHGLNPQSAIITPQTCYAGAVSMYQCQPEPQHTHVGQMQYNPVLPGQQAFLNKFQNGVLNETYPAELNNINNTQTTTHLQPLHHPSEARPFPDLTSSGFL
As to conditions: cited from earlier work.

The conditions of series [5]: cited from earlier work. This is another data set of the same source.

Turning to `O=C1OCCN1c1ccc2[nH]nc(-c3ccc4cc[nH]c4c3)c2c1` [CL-669], on CaMKK1, the “Biochemical Data CaMKK1, inh @ 0.2 μM” value was less than 5% inh @ 0.2 μM. Moreover, on CaMKK2 [1], the “Biochemical Data CaMKK2, inh @ 0.2 μM” value was determined as 55% inh @ 0.2 μM.
At CaMKK1, `O=C1OCCN1c1ccc2[nH]nc(-c3cc4ccccc4o3)c2c1` [Example 2, 3-(3-(Benzofuran-2-yl)-1H-indazol-5-yl)oxazolidin-2-one] registered an IC50 of 164 nM. Moreover, on CaMKK2 [1], the inhibition at 10 µM worked out at 98%.
`O=C1OCCN1c1ccc2[nH]nc(-c3cc4ccccc4[nH]3)c2c1` [Example 3, 3-(3-(1H-indol-2-yl)-1H-indazol-5-yl)oxazolidin-2-one] came in with an IC50 against CaMKK1 of 141 nM. Also, on CaMKK2 [1], the inhibition at 0.2 µM was found to be 80%, the inhibition at 0.5 µM stood at 94% and the inhibition at 10 µM was 100%. In addition, the IC50 against CaMKK2 [2] is 70 nM.
Take `O=C1OCCN1c1ccc2[nH]nc(/C=C/c3ccccn3)c2c1` [Example 4, (E)-3-(3-(2-(pyridin-2-yl)vinyl)-1H-indazol-5-yl)oxazolidin-2-one]: at CaMKK2 [1], the inhibition at 0.2 µM was determined as 55%, the inhibition at 0.5 µM was determined as 81% and the inhibition at 10 µM was found to be 98%. In addition, the IC50 against CaMKK2 [2] worked out at 190 nM.
In the case of `O=C1OCCN1c1ccc2[nH]nc(-c3ccccc3)c2c1` [Example 6, 3-(3-phenyl-1H-indazol-5-yl)oxazolidin-2-one], the “Biochemical Data CaMKK1, inh @ 0.5 μM” value at CaMKK1 was less than 5% inh @ 0.5 μM. Also, at CaMKK2 [1], the “Biochemical Data CaMKK2, inh @ 0.5 μM” value is listed as 37% inh @ 0.5 μM and the inhibition at 0.5 µM is 37%.
With `O=C1OCCN1c1ccc2[nH]nc(-c3cccnc3)c2c1` [Example 7, 3-(3-(pyridin-3-yl)-1H-indazol-5-yl)oxazolidin-2-one], on CaMKK1, the “Biochemical Data CaMKK1, inh @ 0.5 μM” value was less than 5% inh @ 0.5 μM. For the same compound, at CaMKK2 [1], the “Biochemical Data CaMKK2, inh @ 0.5 μM” value was 29% inh @ 0.5 μM and the inhibition at 0.5 µM turned out to be 29%.
For `C=Cc1n[nH]c2ccc(N3CCOC3=O)cc12` [Example 8, 3-(3-vinyl-1H-indazol-5-yl)oxazolidin-2-one] the same measures were 12% inh @ 0.5 μM, 26% inh @ 0.5 μM and 26%.
Taken in the same sequence, the figures for `O=C1OCCN1c1ccc2[nH]nc(C#Cc3ccccn3)c2c1` [Example 12, 3-(3-(pyridin-2-ylethynyl)-1H-indazol-5-yl)oxazolidin-2-one] were 14% inh @ 0.5 μM, 52% inh @ 0.5 μM and 52%.
For the compound `O=C1OCCN1c1ccc2[nH]nc(-c3ccncc3)c2c1` [Example 13, 3-(3-(pyridin-4-yl)-1H-indazol-5-yl)oxazolidin-2-one], the “Biochemical Data CaMKK1, inh @ 0.5 μM” value on CaMKK1 was 7% inh @ 0.5 μM. On CaMKK2 [1], the “Biochemical Data CaMKK2, inh @ 0.5 μM” value came out at 33% inh @ 0.5 μM and the inhibition at 0.5 µM was 33%.
`O=C1OCCN1c1ccc2[nH]nc(-c3ccc[nH]3)c2c1` [Example 22, 3-(3-(1H-pyrrol-2-yl)-1H-indazol-5-yl)oxazolidin-2-one]: on CaMKK1, the “Biochemical Data CaMKK1, inh @ 0.2 μM” value was less than 5% inh @ 0.2 μM. Moreover, on CaMKK2 [1], the “Biochemical Data CaMKK2, inh @ 0.2 μM” value was determined as 37% inh @ 0.2 μM and the inhibition at 0.2 µM was found to be 37%.
For `O=C1OCCN1c1ccc2[nH]nc(-c3cccc(Cl)c3)c2c1` [Example 23, 3-(3-(3-chlorophenyl)-1H-indazol-5-yl)oxazolidin-2-one] the same measures were less than 5% inh @ 0.2 μM, 44% inh @ 0.2 μM and 44%.
Taken in the same sequence, the figures for `O=C1OCCN1c1ccc2[nH]nc(-c3ccc(Cl)cc3)c2c1` [Example 24, 3-(3-(4-chlorophenyl)-1H-indazol-5-yl)oxazolidin-2-one] were less than 5% inh @ 0.2 μM, 41% inh @ 0.2 μM and 41%.
Consider `O=C1OCCN1c1ccc2[nH]nc(-c3cccc(-c4ccccc4)c3)c2c1` [Example 26, 3-(3-([1,1′-biphenyl]-3-yl)-1H-indazol-5-yl)oxazolidin-2-one], for which, on CaMKK1, the “Biochemical Data CaMKK1, inh @ 0.2 μM” value was less than 5% inh @ 0.2 μM. On CaMKK2 [1], the “Biochemical Data CaMKK2, inh @ 0.2 μM” value was found to be 36% inh @ 0.2 μM and the inhibition at 0.2 µM turned out to be 36%.
Take `COc1ccc(/C=C/c2n[nH]c3ccc(N4CCOC4=O)cc23)cc1` [Example 31, (E)-3-(3-(4-methoxystyryl)-1H-indazol-5-yl)oxazolidin-2-one]: the IC50 against CaMKK1 turned out to be 536 nM; at CaMKK2 [2], 33 nM. Besides, on CaMKK2 [1], the inhibition at 0.2 µM stood at 81%.
Regarding `O=C1OCCCN1c1ccc2[nH]nc(-c3cc4ccccc4[nH]3)c2c1` [Example 40, 3-(3-(1H-indol-2-yl)-1H-indazol-5-yl)-1,3-oxazinan-2-one], the “Biochemical Data CaMKK1, inh @ 0.2 μM” value on CaMKK1 is less than 5% inh @ 0.2 μM. Further, at CaMKK2 [1], the “Biochemical Data CaMKK2, inh @ 0.2 μM” value is reported as 37% inh @ 0.2 μM and the inhibition at 0.2 µM came to 37%.
For `O=C1CCCCN1c1ccc2[nH]nc(-c3cc4ccccc4[nH]3)c2c1` [Example 41, 1-(3-(1H-indol-2-yl)-1H-indazol-5-yl)piperidin-2-one] the same measures were less than 5% inh @ 0.2 μM, 12% inh @ 0.2 μM and 12%.
As for `COc1cccc2cc(-c3nc([C@H]4CC[C@H](C(=O)O)CC4)n4ncnc(N)c34)[nH]c12` [OSI-027], the “tissue and tumor penetration” value in series [3] is “poor tissue and tumor penetration”.
On to `O=C(O)c1ccc2c3c1cccc3c(=O)n1c3ccccc3nc21` [STO-609], for which, in series [4], the permeability entry is listed as “poor permeability”. Further, the “agonist of the ArH receptor” value on ArH receptor is listed as 43 nM. Further, in series [5] (9.4 mg/kg ip dose), the brain entry result is “fails to enter the brain” and the plasma concentrations is more than 30 µM. In addition, the “tissue Cmax values” in series [5] (tissue penetration, 9.4 mg/kg ip) is not above 1 µM. The “elimination completed in” value in series [5] (tissues) is ≤ 8 h (h).
